The results in this text go back to paper PMC10376843, “Discovery of Novel Myristic Acid Derivatives as N-Myristoyltransferase Inhibitors: Design, Synthesis, Analysis, Computational Studies and Antifungal Activity” (Antibiotics, 2023).

In assay [1] the test system is Aspergillus niger (ATCC 16888). Description: antifungal micro-broth dilution assay, A. niger. In kind it is cell-based. Particulars: read-out: MIC50 A. niger. The procedure:
(§1) A microbroth dilution method was used to test the synthesized compounds. In vitro tests for antifungal activity against Candida albicans (C. albicans) and Aspergillus niger (A. niger) were carried out in triplicate at concentrations ranging from 100 μg/mL to 6.25 μg/mL. The percentage cytotoxicity and MIC50 value for each compound were calculated from the observed absorbance measured at 590 nm, and the results are shown in Table 5. Fluconazole was used as a reference drug, and the antifungal activities were expressed as minimum inhibitory concentration (MIC50) values in μg/mL.
(§2) From HIMEDIA M210 Mumbai, India, test fungal strains were acquired. The conventional micro-broth dilution method was used to test the in vitro antifungal activity of the synthesized compounds against the fungi Candida albicans (ATCC 10231) and Aspergillus niger (ATCC 16888) from the American Type Culture Collection. The acquired fungal strains were used in the current experiment after being subcultured in SDB (Sabouraud dextrose broth). The 48 h young cultures were created and kept at 26 °C before the experiment.
(§3) According to the CLSI’s standard M27 recommended methodology, the SDB was treated with the compounds, which were dissolved in DMSO via the serial dilution method in sterile circumstances to achieve the necessary concentration levels. All the cultures that had been exposed to the compounds were serially diluted twice in growth media, inoculated to about 1 × 10^5 CFU/mL and incubated at 26 °C for 48 h. Subsequently, using a UV spectrophotometer, the absorbance at 590 nm of each culture was determined. The formula was used to compute the viability percentage.
(§4) Percentage viability = ([…]) × 100
(§5) The percentage inhibition was calculated using the formula (100 - cell viability) and plotted in the graph to determine the MIC50 value for each compound (Figure 8) and (Figure 9).
(§6) GraphPad Prism 8.0.2 software (San Diego, CA, USA) was used for statistical analysis. The MIC50 value was established via a nonlinear regression analysis.
Background: In broth dilution the organism is exposed to a series of concentrations in liquid medium.

Assay [2] concerns Candida albicans (ATCC 10231). Description: antifungal micro-broth dilution assay, C. albicans. In kind it is cell-based. Particulars: ATCC10231, 48 h. On the procedure:
as §1, §2, §3, §4, §5, §6

For assay [3], the target named is N-Myristoyltransferase (NMT). Description: in vitro biochemical NMT inhibition assay (fluorescence detection of CoA). Particulars: 0.1 nM to 10,000 nM; excitation 380 nm, emission 470 nm. The procedure: The potency of the myristic acid derivatives was determined via an in vitro NMT assay. Coenzyme A (CoA) was detected as a byproduct of an enzymatic reaction. Fluorescence was measured at an excitation wavelength of 380 nm and an emission wavelength of 470 nm. In this assay, the intensity of fluorescence was […], giving a signal (Figure 7).
The NMT protein used in the study was from the supplier Ray Biotech. The assay was performed in 96-well black PP microplates with the myristic acid derivatives in concentrations ranging from 0.1 nM to 10,000 nM. The solutions were prepared in a buffer containing 20 mM of potassium phosphate (pH 7.9–8.0) and 0.5 mM of ethylenediaminetetraacetic acid (EDTA), 0.1% (v/v) Triton X-100, and a final concentration of 2.7% (v/v) dimethyl sulfoxide (DMSO). Fluorescence was measured at an excitation wavelength of 380 nm and an emission wavelength of 470 nm. These readings were obtained on an EnSight Multimode Microplate Reader, and we plotted the response vs. concentration (log nM), ranging from 0.1 nM to 10,000 nM, to obtain the IC50 values using Graph Pad Prism, according to the reported standard procedure.

Where [4] appears, read: ATCC16888, ATCC 16888, 48 h, 26 °C, 100 to 6.25 μg/mL, absorbance 590 nm.
[5] abbreviates: ATCC 10231, 26 °C, 100 to 6.25 μg/mL, absorbance 590 nm, read-out: MIC50 C. albicans.

Each structure is given as a SMILES string. ≈ marks a conversion by molar mass, not a printed value. Read-outs that look alike come from different tables or passages of the source. Where only a bound is given, the exact number is not on record here.

Consider `CCCCCCCCCCCCCC(=O)Nc1ccccn1` [Compound 3u, N-(pyridine-2-yl) tetradecanamide], for which the results for the IC50 in assay [1] (setting [4]), in assay [2] (setting [5]) and in assay [3] were 14.4 µg/mL (≈ 47.2 µM), 10.6 µg/mL (≈ 34.9 µM) and 835 nM, respectively.

Take `CCCCCCCCCCCCCC(=O)N1CCOCC1` [Compound 3n, 1-morpholinotetradeca-1-one]: the IC50 in assay [1] (setting [4]) was 31.4 µg/mL (≈ 106 µM); in assay [2] (setting [5]), 27.6 µg/mL (≈ 92.8 µM); in assay [3] it was greater than 1500 nM.

Take `CCCCCCCCCCCCCC(=O)Nc1cccc(C)c1` [Compound 3k, N-(m-tolyl) tetradecanamide]: the IC50 was found to be 59.6 µg/mL (≈ 188 µM) in assay [1] (setting [4]), 10.8 µg/mL (≈ 33.9 µM) in assay [2] (setting [5]) and 1290 nM in assay [3].

For `CCCCCCCCCCCCCC(=O)N(CC)c1ccccc1` [Compound 3q, N-ethyl-N-phenyltetradecanamide], the IC50 in assay [1] (setting [4]) is 28.5 µg/mL (≈ 86.1 µM); in assay [2] (setting [5]) it was 28.4 µg/mL (≈ 85.7 µM); in assay [3], greater than 1500 nM.

With `CCCCCCCCCCCCCC(=O)Nc1ccc(O)cc1` [Compound 3t, N-(4-hydroxyphenyl) tetradecanamide], the figures for the IC50 in assay [1] (setting [4]), in assay [2] (setting [5]) and in assay [3] were 17.4 µg/mL (≈ 54.5 µM), 12.9 µg/mL (≈ 40.5 µM) and 1000 nM, respectively.

Regarding `CCCCCCCCCCCCCC(=O)Nc1ccc(OCC)cc1` [Compound 3l, N-(4-ethoxyphenyl) tetradecanamide], the IC50 is 75.9 µg/mL (≈ 218 µM) in assay [1] (setting [4]), 15 to 22 µg/mL (≈ 43.2 to 63.3 µM) in assay [2] (setting [5]) and greater than 1500 nM in assay [3].

Take `CCCCCCCCCCCCCC(=O)Nc1ccc(C(F)(F)F)cc1` [Compound 3s, N-(4-(trifluoromethyl)phenyl)tetradecanamide]: the values for the IC50 in assay [1] (setting [4]), in assay [2] (setting [5]) and in assay [3] were 34.3 µg/mL (≈ 92.3 µM), 38.8 µg/mL (≈ 104 µM) and greater than 1500 nM, respectively.

Take `CCCCCCCCCCCCCC(=O)Nc1ccc(F)cc1` [Compound 3r, N-(4-fluorophenyl) tetradecanamide]: the IC50 in assay [1] (setting [4]) came to 15.4 µg/mL (≈ 48 µM); in assay [2] (setting [5]), 11.9 µg/mL (≈ 37 µM); in assay [3] it was 1460 nM.

For `CCCCCCCCCCCCCC(=O)Nc1ccccc1` [Compound 3p, N-phenyltetradecanamide], the results for the IC50 in assay [1] (setting [4]), in assay [2] (setting [5]) and in assay [3] were 24.8 µg/mL (≈ 81.6 µM), 15 to 22 µg/mL (≈ 49.4 to 72.5 µM) and greater than 1500 nM, respectively.

In the case of `CCCCCCCCCCCCCC(=O)NC1CCCCC1` [Compound 3m, N-cyclohexyltetradecanamide], the IC50 in assay [1] (ATCC16888, 48 h) is 14.7 µg/mL (≈ 47.4 µM); in assay [2] (read-out: MIC50 C. albicans, ATCC 10231, 26 °C, 100 to 6.25 μg/mL, absorbance 590 nm) it was 15 to 22 µg/mL (≈ 48.5 to 71.1 µM); in assay [3] it was 863 nM.

Consider `CCCCCCCCCCCCCC(=O)Nc1nc(C)cs1` [Compound 3v, N-(4-methylthiazol-2-yl) tetradecanamide], for which the IC50 in assay [1] (setting [4]) was 22.1 µg/mL (≈ 68.3 µM); in assay [2] (setting [5]) it was 32.4 µg/mL (≈ 99.8 µM); in assay [3], greater than 1500 nM.

Molecule `CCCCCCCCCCCCCC(=O)O` [Myristic acid] registered an IC50 in assay [3] of 4210 nM.

`OC(Cn1cncn1)(Cn1cncn1)c1ccc(F)cc1F` [FLZ, Fluconazole, reference compound]: the IC50 came to 16.3 µg/mL (≈ 53.2 µM) in assay [1] (setting [4]) and 17.8 µg/mL (≈ 58 µM) in assay [2] (setting [5]).

For the molecule `CCCCCCCCCCCCCC(=O)N(C)c1ccccc1` [Compound 3o, N-methyl-N-phenyltetradecanamide], the IC50 in assay [1] (setting [4]) is 94.2 µg/mL (≈ 297 µM); in assay [2] (setting [5]) it was 15 to 22 µg/mL (≈ 47.2 to 69.3 µM); in assay [3], greater than 1500 nM.
